Target: hDHODH (Homo sapiens, UniProt Q02127)
Assay: Determination of hDHODH enzymatic inhibitory activity
Format: biochemical
Settings: compound final concentration 1 μM; purified hDHODH 40 nM; absorbance 600 nm
Method: Determination of hDHODH Enzymatic Inhibitory Activity of Compounds
Assay buffer preparation: 100 mM HEPES buffer, 150 mM NaCl, 10% glycerol, and 0.1% Triton X-100 were mixed, adjusted to pH-8.0. A resulting mixture was diluted with Milli-Q water, and then stored at 4° C. A total volume of the enzyme activity detection system was 60 μL. The procedure was performed as follows: 1 μL of the small-molecule solution (with a final concentration of 1 μM) was added to a 96-well enzyme plate. 39 μL of a mixture containing the purified hDHODH protein (with a final concentration of 40 nM), 2,6-dichloroindophenol sodium salt (with a final concentration of 100 μM), coenzyme Q (CoQ, with a final concentration of 20 μM) were added thereto. The plate was protected from light and incubated at 37° C. with gentle shaking for 30 min. After the incubation was completed, 20 μL of dihydroorotate (DHO, with a final concentration of 200 μM) was added to each well. Absorbance was immediately measured using a microplate reader having the following procedure: kinetic assay: wavelength: 600 nm, total duration: 10 min, interval: every 20 s. Controls: negative control: Dimethyl sulfoxide (DMSO) (equal volume) without inhibitor; blank control: ultra-pure water (equal volume) without DHO substrate. All assays were conducted in triplicate. […]

Chain of hDHODH (Q02127 whole entry): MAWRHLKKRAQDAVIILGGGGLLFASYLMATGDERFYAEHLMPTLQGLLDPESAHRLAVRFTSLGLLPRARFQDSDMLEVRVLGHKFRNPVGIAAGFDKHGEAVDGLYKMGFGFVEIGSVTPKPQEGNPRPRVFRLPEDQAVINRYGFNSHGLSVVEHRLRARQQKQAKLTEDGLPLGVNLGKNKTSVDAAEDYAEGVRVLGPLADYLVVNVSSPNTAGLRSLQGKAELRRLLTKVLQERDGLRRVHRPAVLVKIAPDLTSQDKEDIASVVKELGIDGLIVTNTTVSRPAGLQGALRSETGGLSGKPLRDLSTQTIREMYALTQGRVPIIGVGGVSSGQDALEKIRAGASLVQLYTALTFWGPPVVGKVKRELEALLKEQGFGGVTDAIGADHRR

inhibition at 1 µM: 48.3%
SMILES: Fc1ccccc1Cn1nc(-c2ccc(C3CC3)cn2)c2cccnc21 [Compound D11]

— patent US20260274839A1, “COMPOUND AND USE THEREOF IN TREATING HUMAN DIHYDROOROTATE DEHYDROGENASE (hDHODH)-MEDIATED DISEASES” (SICHUAN UNIVERSITY, priority 2023, published 2026)
